Source: PubChem BioAssay (NCI)
“And” between values parts separate entries of the source, which are not always exact repeats. Equal entries are not always repeated.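 Compound exposure: 48 hours, 5 concentrations, 96-well plates. Here, GI50 denotes the concentration required for 50% inhibition of growth. TGI denotes the concentration required for complete inhibition of growth.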

Legend:
Assay in all cases: NCI anticancer screen, dose series, 48 h
A498 renal = test system: A498 renal
A549 NSCLC = test system: A549 NSCLC
HCT-15 colon = test system: HCT-15 colon
IGROV1 ovarian = test system: IGROV1 ovarian
KM12 colon = test system: KM12 colon
MALME-3M melanoma = test system: MALME-3M melanoma
MOLT-4 leukemia = test system: MOLT-4 leukemia
RXF 393 renal = test system: RXF 393 renal
SF-268 CNS = test system: SF-268 CNS
SF-539 CNS = test system: SF-539 CNS
UACC-62 melanoma = test system: UACC-62 melanoma
HOP-92 NSCLC = test system: HOP-92 NSCLC
HS 578T breast = test system: HS 578T breast
MCF7 breast = test system: MCF7 breast
MDA-MB-435 = test system: MDA-MB-435
NCI-H23 lung = test system: NCI-H23 lung

| Structure (SMILES) | TGI (A498 renal) | TGI (A549 NSCLC) | TGI (HCT-15 colon) | TGI (IGROV1 ovarian) | TGI (KM12 colon) | TGI (MALME-3M melanoma) | TGI (MOLT-4 leukemia) | TGI (RXF 393 renal) | TGI (SF-268 CNS) | TGI (SF-539 CNS) | TGI (UACC-62 melanoma) | TGI (HOP-92 NSCLC) | TGI (HS 578T breast) | TGI (MCF7 breast) | TGI (MDA-MB-435) | TGI (NCI-H23 lung) | GI50 (IGROV1 ovarian) |
| --- | --- | --- | --- | --- | --- | --- | --- | --- | --- | --- | --- | --- | --- | --- | --- | --- | --- |
| Cc1ccc(Nc2cccc3c2C(=O)c2cccc(Nc4ccc(C)cc4S(=O)(=O)O)c2C3=O)c(S(=O)(=O)O)c1 | > 100 µM | > 100 µM | > 100 µM | > 100 µM | > 100 µM | > 100 µM | > 100 µM | > 100 µM | > 100 µM | > 100 µM | > 100 µM | – | – | – | – | – | – |
| Cc1ccc2[nH]c3c(c(=O)n(C)c(=O)n3C)c2c1 | > 100 µM | > 100 µM | > 100 µM | > 100 µM | > 100 µM | > 100 µM | > 100 µM | – | > 100 µM | > 100 µM | > 100 µM | > 100 µM | > 100 µM | > 100 µM | > 100 µM | > 100 µM | – |
| COC(=O)c1cc(CC2Cc3cc4c(cc3C2=O)CCC4)cc2c1CCC2 (configuration not stated) | > 100 µM | > 100 µM | > 100 µM | > 100 µM | > 100 µM | > 100 µM | > 100 µM | – | > 100 µM | > 100 µM | > 100 µM | – | > 100 µM | > 100 µM | > 100 µM | > 100 µM | – |
| O=C(c1cscc1CCc1ccccc1)c1cscc1CCc1ccccc1 | > 100 µM | > 100 µM | > 100 µM | > 100 µM | > 100 µM | > 100 µM | > 100 µM | > 100 µM | > 100 µM | > 100 µM | > 100 µM | – | – | > 100 µM | > 100 µM | > 100 µM | – |
| O=C(OCc1ccccc1)C(Cc1ccc(OCc2ccccc2)cn1)NC(=O)C(F)(F)F (configuration not stated) | > 100 µM | > 100 µM | > 100 µM | > 100 µM | > 100 µM | > 100 µM | > 100 µM | > 100 µM | > 100 µM | > 100 µM | – | > 100 µM | > 100 µM | – | > 100 µM | > 100 µM | – |
| O=C(Sc1c(-c2ccccc2)c(=O)n(-c2ccccc2)c(=S)n1-c1ccccc1)c1ccccc1 | – | > 100 µM | > 100 µM | > 100 µM | > 100 µM | > 100 µM | 73.3 µM | – | > 100 µM | – | > 100 µM | 71.9 µM | > 100 µM | > 100 µM | > 100 µM | > 100 µM | – |
| COC(=O)/C=C/CCC#Cc1ccccc1C#CCC/C=C/C(=O)OC | > 100 µM | > 100 µM | > 100 µM | 98.2 µM | > 100 µM | > 100 µM | 10.5 µM | 27 µM | > 100 µM | 30.9 µM | > 100 µM | 85.4 µM | – | > 100 µM | > 100 µM | 42.9 µM | – |
| CC(=O)OCC1OC(n2c(C)c(C(C)=O)c(-c3ccco3)c(C#N)c2=S)C(OC(C)=O)C(OC(C)=O)C1OC(C)=O (configuration not stated) | > 100 µM | > 100 µM | > 100 µM | > 100 µM | > 100 µM | > 100 µM | > 100 µM | > 100 µM | > 100 µM | > 100 µM | > 100 µM | 87.5 µM | – | > 100 µM | > 100 µM | > 100 µM | > 100 µM and 43.6 µM |
| C=C(C)[C@H]1CC[C@@]23O[C@@H]2[C@@H](C[C@@]2(C)CC(=O)[C@H](CC(=O)C1)O2)OC(=O)[C@@]12CC[C@H](C(=C)C)CC(=O)C[C@H]4O[C@](C)(CC4=O)C[C@@H](OC3=O)[C@@H]1O2 | > 100 µM | > 100 µM | > 100 µM | > 100 µM | > 100 µM | > 100 µM | > 100 µM | > 100 µM | – | > 100 µM | > 100 µM | > 100 µM | – | > 100 µM | > 100 µM | > 100 µM | – |
| Cc1ccc(N2C(=O)C3c4[nH]c5ccc(C)cc5c4C4CCC(C(C)(C)C)CC4C3C2=O)cc1 (configuration not stated) | – | 32.8 µM | > 100 µM | 36.5 µM | 62.4 µM | 44.4 µM | 8.06 µM | – | 33.2 µM | – | 30 µM | 52.1 µM | 44 µM | 28.7 µM | 55.1 µM | 39.7 µM | – |
| COC(=O)[C@@H]1CN(C(=O)CCc2ccccc2)C(=O)N1 | > 100 µM | > 100 µM | > 100 µM | > 100 µM | > 100 µM | > 100 µM | > 100 µM | > 100 µM | > 100 µM | > 100 µM | – | > 100 µM | > 100 µM | – | > 100 µM | > 100 µM | – |
| CCOC(=O)[C@@H]1[C@@H](c2ccccc2)N(C)O[C@@]1(c1ccccc1)C(F)(F)F | > 100 µM | > 100 µM | > 100 µM | > 100 µM | > 100 µM | > 100 µM | – | > 100 µM | > 100 µM | – | > 100 µM | > 100 µM | > 100 µM | – | > 100 µM | > 100 µM | – |
| CC[C@H](C)[C@@H]([C@@H](CC(=O)N1CCC[C@H]1[C@H](OC)[C@@H](C)C(=O)NCCc1ccccc1)OC)N(C)C(=O)C(NC(=O)[C@H](C(C)C)N(C)C)C(C)C (some centres not stated) | > 10 µM | 1.1 µM | > 10 µM | – | 0.00178 µM | > 10 µM | – | > 10 µM | > 10 µM | – | > 10 µM | – | – | > 10 µM | 0.000192 µM | > 10 µM | – |
| CNc1cc([N+](=O)[O-])ccc1C(=O)N1CCC[C@H]1CO | > 100 µM | > 100 µM | > 100 µM | > 100 µM | > 100 µM | – | > 100 µM | – | > 100 µM | > 100 µM | > 100 µM | > 100 µM | – | > 100 µM | > 100 µM | – | – |
| O=C1c2ccccc2C(=O)N1CCCOCc1c[nH]c(=O)[nH]c1=O | > 100 µM | > 100 µM | > 100 µM | > 100 µM | > 100 µM | > 100 µM | > 100 µM | > 100 µM | > 100 µM | > 100 µM | > 100 µM | > 100 µM | – | – | – | > 100 µM | – |
